One may read the Ki as the dissociation constant of the complex between target and ligand, obtained from inhibition or displacement. What is called IC50 is the point on the concentration scale where inhibition reaches its midpoint. A high value points to weaker potency in that assay.

Assay [1] has as its target T1, D-serine-sensitive Na+-independent transporter in rat cortical membranes (Rattus norvegicus, UniProt P63116).
T1 construct: from tissue; host or cells: rat cerebral cortex membranes (P2 synaptosomes), male Wistar rats
T1 sequence (P63116 1-530): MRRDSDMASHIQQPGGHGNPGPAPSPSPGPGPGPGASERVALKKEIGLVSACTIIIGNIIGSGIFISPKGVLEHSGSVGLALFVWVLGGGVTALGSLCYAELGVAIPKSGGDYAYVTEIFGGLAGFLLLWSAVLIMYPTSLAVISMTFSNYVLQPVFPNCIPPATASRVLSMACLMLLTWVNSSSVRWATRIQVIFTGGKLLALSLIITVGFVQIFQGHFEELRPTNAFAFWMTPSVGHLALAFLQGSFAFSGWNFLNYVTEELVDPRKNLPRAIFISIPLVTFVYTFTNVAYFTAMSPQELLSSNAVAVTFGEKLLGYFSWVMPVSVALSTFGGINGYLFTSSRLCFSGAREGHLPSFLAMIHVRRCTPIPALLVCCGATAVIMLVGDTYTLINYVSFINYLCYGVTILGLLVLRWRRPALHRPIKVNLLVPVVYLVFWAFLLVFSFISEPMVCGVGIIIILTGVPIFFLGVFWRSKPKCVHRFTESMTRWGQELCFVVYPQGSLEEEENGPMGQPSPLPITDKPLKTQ
T1 sequence (Q794F9 1-527 partner): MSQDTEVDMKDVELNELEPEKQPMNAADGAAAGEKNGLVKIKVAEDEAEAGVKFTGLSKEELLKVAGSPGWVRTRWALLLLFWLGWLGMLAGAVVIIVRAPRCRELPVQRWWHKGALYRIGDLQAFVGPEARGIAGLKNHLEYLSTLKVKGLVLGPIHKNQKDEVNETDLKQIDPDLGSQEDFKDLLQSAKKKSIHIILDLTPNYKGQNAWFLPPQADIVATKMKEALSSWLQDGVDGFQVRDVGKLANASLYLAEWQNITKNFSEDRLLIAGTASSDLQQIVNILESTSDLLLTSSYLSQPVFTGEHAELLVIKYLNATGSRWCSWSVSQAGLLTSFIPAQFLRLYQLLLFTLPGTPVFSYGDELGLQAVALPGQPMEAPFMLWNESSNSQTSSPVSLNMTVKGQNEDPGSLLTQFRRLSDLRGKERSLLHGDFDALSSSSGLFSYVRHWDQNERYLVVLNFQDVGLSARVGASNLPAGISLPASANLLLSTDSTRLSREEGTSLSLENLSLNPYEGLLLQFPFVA
Put plainly: Na+-independent [3H]D-serine uptake into rat cortical membranes (synaptosomes). It is filed as biochemical. How it is done: (§1) Into cortical membranes: Cortex from male Wistar rats (150-200 g) was homogenized in 0.40 M sucrose and centrifuged at 1000×g for 10 min. […] Test compounds and tissue (1 mg orig. tissue/well) were added to 96 well plates and incubated with [^3H]-D-serine (specific activity=26.8 Ci/mmol, PerkinElmer, Cambridge, U.K.) (100 nM final concentration) for 5 min at 25° C. Samples were filtered on Unifilter GF/B glass fiber (Packard Biosciences, Meriden, Conn., USA) and washed with 3×0.25 mL assay buffer. Measurements of [^3H]-D-serine uptake into whole HEK293 cells expressing human asc-1 were performed in 96 well plates with similar conditions except that the cells were incubated for 15 min with radioligand and washed by dipping twice in cold assay buffer following incubation with radioligand. Accumulated radioactivity was extracted from the cells by adding 200 μL scintillation fluid/well (Ultima Gold, Packard Biosciences) and the plates were counted in a Microplates Scintillation Counter (Packard Biosciences). The D-serine uptake in samples containing test compounds was compared to controls without added compound or controls where transport via the asc-1 was inhibited by addition of e.g. 30 mM L-alanine.

In assay [2] the target is T2, human asc-1 (Homo sapiens, UniProt Q9NS82).
T2 construct: expressed in transfected cells; host or cells: HEK293 (ATCC CRL 1573), transient, vector pCI/neo
T2 sequence (Q9NS82 1-523): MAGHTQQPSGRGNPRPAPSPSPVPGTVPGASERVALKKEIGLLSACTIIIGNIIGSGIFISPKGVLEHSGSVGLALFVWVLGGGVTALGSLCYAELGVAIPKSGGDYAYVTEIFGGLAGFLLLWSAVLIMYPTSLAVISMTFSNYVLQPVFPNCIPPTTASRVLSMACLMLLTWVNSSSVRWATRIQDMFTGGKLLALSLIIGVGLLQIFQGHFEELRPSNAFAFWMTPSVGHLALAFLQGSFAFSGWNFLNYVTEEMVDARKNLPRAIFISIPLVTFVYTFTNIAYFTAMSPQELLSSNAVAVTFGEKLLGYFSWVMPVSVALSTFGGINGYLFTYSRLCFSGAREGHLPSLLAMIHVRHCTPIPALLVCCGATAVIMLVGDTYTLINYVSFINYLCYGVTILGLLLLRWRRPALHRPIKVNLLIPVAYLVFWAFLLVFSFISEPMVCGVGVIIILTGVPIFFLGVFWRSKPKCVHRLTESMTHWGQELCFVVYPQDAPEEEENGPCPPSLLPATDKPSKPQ
In words: [3H]D-serine uptake into HEK293 cells expressing human asc-1. It counts as cell-based. On the procedure: Uptake was determined 2-4 days after the transfection.
as §1

Assay [3] relates to System A transporters. The conditions noted are these: at 5 mM; cultured rat hepatocytes; cited from earlier work.
The subject of assay [4] is System A transporters. In words: [3H]AIB transport into cultured rat hepatocytes (Bracy et al.). It counts as cell-based. The conditions noted are these: corresponding to 81% inhibition at 5 mM.
Assay [5] deals with noradrenaline (NA) uptake (Rattus norvegicus, UniProt Q63380). Put plainly: [3H]noradrenalin uptake into rat cortical synaptosomes. It is filed as biochemical. The following applies: read-out: Ki, block of noradrenaline transport. How it is done: Inhibition of serotonin (5-HT), dopamine (DA) and noradrenaline (NA) uptake in vitro was measured in rat brain synaptosomes using a modification of a previously described protocol (Bøgesø et al., J Med Chem 1985, 28, 1817-1828). In brief, tritium labelled amines were used to measure uptake into synaptosomes from whole rat brain (excluding cerebellum) ([^3H]serotonin), rat striatal synaptosomes ([^3H]dopamine) or into rat cortical synaptosomes [^3H]noradrenalin. The dissected rat brain regions were homogenized in 0.40 M sucrose supplemented with 1 mM nialamid and centrifuged at 1000×g for 10 min. The supernatants were further centrifuged for 30 min at 20.000×g, 4° C. and resuspended in Krebs-Ringer buffer, pH 7.4 supplemented with 0.2 g/l ascorbic acid. Test compounds and membranes were added in 96 well plates and the incubation was started by adding either 10 nM [^3H]serotonin, 12.5 nM [^3H]dopamine or 10 nM [^3H]noradrenalin for 15 min at 37° C. except for [^3 H]dopamine uptake (5 min at 20° C.). Non-specific uptake was defined as uptake in the presence of 10 μM citalopram, 100 μM benttropin or 20 μM talsupram, respectively and accounted for 5-10% of total uptake. Samples were filtered over Whatman GF/C filters and the IC50's were estimated using non-linear regression analysis from at least 8 points dose-response curves with triplicate determinations.
noradrenaline (NA) uptake, sequence (Q63380 1-617): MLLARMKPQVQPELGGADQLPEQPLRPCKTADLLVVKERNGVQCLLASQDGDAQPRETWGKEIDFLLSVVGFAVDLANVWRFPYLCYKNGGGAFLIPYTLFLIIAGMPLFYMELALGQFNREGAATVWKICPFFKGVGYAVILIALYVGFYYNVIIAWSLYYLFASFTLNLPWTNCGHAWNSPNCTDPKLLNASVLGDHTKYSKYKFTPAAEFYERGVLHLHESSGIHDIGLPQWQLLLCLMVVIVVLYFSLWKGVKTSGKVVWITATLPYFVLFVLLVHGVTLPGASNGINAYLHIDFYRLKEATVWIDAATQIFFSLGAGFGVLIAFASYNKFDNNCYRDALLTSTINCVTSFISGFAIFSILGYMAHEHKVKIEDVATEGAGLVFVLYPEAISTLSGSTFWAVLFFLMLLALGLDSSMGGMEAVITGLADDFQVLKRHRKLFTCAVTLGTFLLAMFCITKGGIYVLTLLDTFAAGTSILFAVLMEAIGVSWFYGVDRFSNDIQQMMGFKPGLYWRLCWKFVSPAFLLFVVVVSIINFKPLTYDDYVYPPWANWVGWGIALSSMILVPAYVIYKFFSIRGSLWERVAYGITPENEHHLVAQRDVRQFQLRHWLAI

As to `CSCC(N)C(=O)O` (stereo in doubt) [(S)-methyl-L-cysteine], the Ki in assay [1] was 6.6 ± 1.8 µM; in assay [2], 62 ± 15 µM; in assay [5] it was above 1000 µM. In addition, in assay [3], the “inhibition of System A transporters ([3H]AIB transport)” value was 81%. Besides, the IC50 in assay [4] was around 1200 µM.

The record behind these values is patent US20050176826A1, “Use of asc-1 inhibitors to treat neurological and psychiatric disorders” (H. Lundbeck A/S, priority 2002, published 2005).
